Data: patent US12269825B2, “Organic compounds” (INTRA-CELLULAR THERAPIES, INC., priority 2014, dated 2025)

Columns and labels:
[1] = target: T1, CYP 3A4 (Homo sapiens, UniProt P08684); assay: In-vitro metabolism using subcellular fractions and isolated hepatocytes: N-demethylation; type: in vitro ADME
T1 construct: from tissue
From the text: (§1) The in-vitro metabolism of the Compound of the Formula Q and its metabolites is studied using subcellular fractions and isolated hepatocytes. […] These two reductions are both catalyzed in the reverse direction (oxidation) by CYP 3A4.

[2] = In-vivo metabolism after oral administration; conditions: oral administration to rats, dogs and humans
Protocol: (§2) In addition, the in-vivo metabolism of the Compound of Formula Q is studied after oral administration to rats, dogs and humans. Plasma levels after administration are determined in all three species for the Compounds of Formula Q through T. The results of the studies indicate that metabolism of the Compound of Formula Q is rapid, and that the N-demethyl compounds are highly polar and excreted rapidly. Results of human plasma studies on day 8 after 7 day dosing (120 mg, 4 doses/day) with the Compound of Formula Q are shown below: […]

[3] = tested on: ketone reductase; assay: In-vitro metabolism using subcellular fractions and isolated hepatocytes: ketone reduction; type: in vitro ADME; conditions: forms Compounds of Formula S and T, respectively
From the text: as §1

[4] = Human plasma levels of Compounds Q through T after oral dosing with the Compound of Formula Q; type: in vivo; conditions: day 8 after 7 day dosing (120 mg, 4 doses/day) with the Compound of Formula Q
Protocol: as §2

T1 sequence (P08684 whole entry, species assumed): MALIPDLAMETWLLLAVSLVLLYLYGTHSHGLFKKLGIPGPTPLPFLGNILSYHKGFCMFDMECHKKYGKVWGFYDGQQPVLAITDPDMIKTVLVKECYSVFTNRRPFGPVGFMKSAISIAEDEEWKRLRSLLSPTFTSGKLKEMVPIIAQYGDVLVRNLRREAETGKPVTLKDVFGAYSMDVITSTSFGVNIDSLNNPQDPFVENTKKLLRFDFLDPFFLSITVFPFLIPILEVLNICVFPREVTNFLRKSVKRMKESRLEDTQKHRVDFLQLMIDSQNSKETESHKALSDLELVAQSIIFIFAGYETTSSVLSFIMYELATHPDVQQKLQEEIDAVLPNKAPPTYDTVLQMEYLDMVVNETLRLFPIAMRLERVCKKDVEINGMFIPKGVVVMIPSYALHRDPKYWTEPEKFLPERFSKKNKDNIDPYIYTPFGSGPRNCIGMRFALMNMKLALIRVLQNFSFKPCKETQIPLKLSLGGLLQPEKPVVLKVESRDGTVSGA

| rate of metabolism in vivo [2] | AUC [4] | Cmax [4] | Tmax [4] | SMILES | metabolic route: N-demethylation [1] | metabolic route: ketone reduction [3] |
| --- | --- | --- | --- | --- | --- | --- |
| rapid | 347 ng·h/mL | 78 ng/mL | 2.5 h | CN1CCN2c3c(cccc31)[C@@H]1CN(CCCC(=O)c3ccc(F)cc3)CC[C@@H]12 [Compound Q, 4-((6bR,10aS)-3-methyl-2,3,6b,9,10,10a-hexahydro-1H-pyrido[3′,4′:4,5]pyrrolo[1,2,3-de]quinoxalin-8(7H)-yl)-1-(4-fluorophenyl)-1-butanone] | N-demethylated to the Compound of Formula R via the P450 cytochrome oxidase isoform 3A4 (CYP 3A4) | undergo ketone reduction via the enzyme ketone reductase |
|  | 170 ng·h/mL | 37 ng/mL | 2.5 h | O=C(CCCN1CC[C@H]2[C@@H](C1)c1cccc3c1N2CCN3)c1ccc(F)cc1 [Compound R] |  |  |
|  | 906 ng·h/mL | 79 ng/mL | 3.5 h | CN1CCN2c3c(cccc31)[C@@H]1CN(CCCC(O)c3ccc(F)cc3)CC[C@@H]12 (stereo partly drawn) [Compound S] |  |  |
|  | 517 ng·h/mL | 38 ng/mL | 6 h | OC(CCCN1CC[C@H]2[C@@H](C1)c1cccc3c1N2CCN3)c1ccc(F)cc1 (stereo partly drawn) [Compound T] |  |  |
